Earlier results in patent publication US12133900B2, “Synthesis and composition of amino acid linking groups conjugated to compounds used for the targeted imaging of tumors” (Purdue Research Foundation, priority 2013, dated 2024).

Key:
[1] = instability of the thiourea bridge; cited from earlier work
[2] = tested on: malignant lesions in human ovarian cancer patients; settings: intra-operative; cited from earlier work

Nc1nc2ncc(CNc3ccc(C(=O)NC(CCC(=O)NCCNC(=S)Nc4ccc(-c5c6ccc(=O)cc-6oc6cc(O)ccc56)c(C(=O)O)c4)C(=O)O)cc3)nc2c(=O)[nH]1 (stereo not drawn) [EC17, folate-ethelenediamine-fluorescein isothiocynate]
shelf-life stability [1]: easily decomposes
more malignant lesions removed with the dye than without it [2]: ~5 ×
pathology of resected fluorescent lesions [2]: confirmed by pathology to be malignant
